Results published in patent US8591761B2, “Apparatus including hydrofluoroether with high temperature stability and uses thereof” (3M Innovative Properties Company, priority 2009, dated 2013).
Read-outs that look alike come from different tables or passages of the source.

Legend:
[1] = format: physicochemical; settings: for stability of the HFE to temperature (conclusion from ketone concentration): heated at 150° C. for 8 days
Description: Stability testing was carried out by heating of the various samples in clean, PYREX glass round bottom flasks at the temperatures noted below.
The stability of H(CF2CF2)3CH2OCF2CFHCF3 was tested by placing a portion of the ether, prepared essentially as described in Example 1 and treated with both HF and potassium permanganate, (˜100 g) into a new PYREX glass flask containing a reflux condenser under nitrogen and heating to 150° C. for 36 days. Samples of the liquid were taken at 7, 14, 26 and 36 day time intervals and the composition was monitored by GC/MS for breakdown products of the parent molecule. […] The compositional analysis (GC/MS and GC-FID) verified this conclusion. After this heating period, the sample was then heated to 180° C. for an additional 14 days.
The stability of H(CF2CF2)3CH2OCF2CFHOCF3 was tested by placing a portion of the ether, prepared as described above, (75 g) into a flask containing a reflux condenser under nitrogen and heating while stirring magnetically to 175° C. for 15 days. Samples of the liquid were taken at 1, 2, 3, 4, 7, 8, 9, 11 and 15 day time intervals and analyzed by gas chromatography. In addition, the starting material and the material at the end of the heating period were analyzed by GC/MS for breakdown products of the parent molecule.
Stability testing in glass was carried out by placing about 100 g of the ether in a 500 ml, round bottom flask equipped with a water condenser and heated with magnetic stirring to 150° C. for seven days. Samples of the liquid were taken on days 1, 2, 3, 4, and 7 and analyzed by gas chromatography, HF gas probe, and pH paper. After one day, the pH had dropped from the initial value neutral value of 7 to 5 and remained at that level the remainder of the test.
(§1) 50 grams of the hydrofluoroether was charged to a 50 mL round bottom flask. The material was heated at 150° C. for 8 days with samples taken at day 1, 2, 3, 6, and 8. The primary breakdown product from the parent molecule that was monitored was the ketone intermediate, C3F7OCF(CF3)CF2OCF(CF3)C(O)CF2CF3. This was monitored using GC-FID.
as §1, with “5, 7,” for “3, 6,”
50 g of the hydrofluoroether was charged to a 50 mL round bottom flask. The material was heated at 150° C. for 7 days with samples taken at days 3, 5, and 7 days. The primary breakdown products from the parent molecule that were monitored was vinyl ether, C4F9OCF(CF3)CF2OCF═CF2 and the hydride C4F9OCF(CF3)CF2OCFHCF3. These were monitored using GC-FID.
50 g of the hydrofluoroether was charged to a 50 mL round bottom flask. […] The primary breakdown products from the parent molecule that were monitored was vinyl ether, C3F7(OCF(CF3)CF2)2OCF═CF2 and the hydride C3F7(OCF(CF3)CF2)2OCF═HCF3. These were monitored using GC-FID.

[2] = format: physicochemical; settings: for breakdown product diketone (CF3)2CFCOC2F4COCF(CF3)2: other studies; for appearance of the metal parts of the chiller: over the lifetime of the test; for changes in the composition of the circulating fluid (NMR, GC/MS): circulated through closed stainless steel loop at 150° C. for 28 days
Description: The long term stability of HC6F12CH2OCF2CFHCF3 in a commercial chiller unit was tested. The chiller used for this test was a Lydall Affinity Chiller, model PWL-003 KBE48CBC3 with an operating range of 10° C. to 200° C. HC6F12CH2OCF2CFHCF3 was circulated through a closed stainless steel loop at 150° C. for 28 days. During this time the chiller operated continuously except for short periods for taking samples in which the fluid was cooled to room temperature before the sample was removed. […] The composition of the circulating fluid was analyzed by GC/MS periodically (on days 1, 3, 6, 13, 20, and 28) to determine whether any changes in the fluid had occurred. Fluorine NMR analysis of the fluid before the testing and after completion of the testing was also carried out. […] A very small level of HF (1.4 ppm) was observed initially and this value decreased to 0 ppm by day 13. HF was also monitored in the liquid phase by titration and never exceeded a value of 0.52 ppm.
A comparative hydrofluoroether 2,3,3,4,4-pentafluoro-2,5-bis(perfluoropropan-2-yl)-5-ethoxytetrahydrofuran (II) was also tested multiple times in this same system under the same conditions. The composition of this fluid was monitored periodically over about thirty days for composition changes from the input material. […] HF was also monitored in the liquid phase by titration and ranged between 0.34 and 0.36 ppm. […] Depending on the study this corrosion varied between quite marked with the formation of black or greenish deposits to less obvious but still showing significant signs of a corrosive agent derived from the fluid. This corrosion as well as the formation of the diketone breakdown product rendered this material unacceptable for use in such a high temperature heat transfer application.
Furthermore, the heat transfer fluid that includes the hydrofluoroether compound from Example 1 was tested for long term stability in a commercial chiller unit as described in Example 3. […] As a comparison, the compound from Comparative Example 1 was put through the same test.

For `CCOC1(C(F)(C(F)(F)F)C(F)(F)F)OC(F)(C(F)(C(F)(F)F)C(F)(F)F)C(F)(F)C1(F)F` (centres unmarked) [Comparative Example 1, 2,3,3,4,4-pentafluoro-2,5-bis(perfluoropropan-2-yl)-5-ethoxytetrahydrofuran], the “ppm F (HF levels in the liquid phase)” value ([1]; 150° C., Day 0) was <0.1 ppm, the “ppm F (HF levels in the liquid phase)” value ([1]; 150° C., Day 1) was 1.0 ppm and the “ppm F (HF levels in the liquid phase)” value ([1]; 150° C., Day 2) was 1.8 ppm. The “ppm F (HF levels in the liquid phase)” value ([1]; 150° C., Day 3) was 2.6 ppm, the “ppm F (HF levels in the liquid phase)” value ([1]; 150° C., Day 4) was 3.2 ppm and the “ppm F (HF levels in the liquid phase)” value ([1]; 150° C., Day 7) was 3.9 ppm. The “pH (pH paper)” value ([1]; 150° C., after one day, remained at that level the remainder of the test) was 5, the “HF level in the headspace (PortaSens probe)” value ([1]; 150° C., day 3, maximum level which the probe could detect, did not change for remainder of test) was 27 ppm and the “decomposition product diketone (CF3)2CFCOC2F4COCF(CF3)2 level” value ([1]; 150° C., day 7) was 1648 ppm. The “pH (pH paper)” value ([1]; initial value, before heating) was 7, the “stability of the parent molecule (conclusion from diketone formation)” value [2] was “not stable” and the “breakdown product diketone (CF3)2CFCOC2F4COCF(CF3)2” value ([2]; 150° C., at 7 days) was 472 ppm. For the same compound, the “breakdown product diketone (CF3)2CFCOC2F4COCF(CF3)2” value ([2]; 150° C., at 28 days) was 195 ppm, the “appearance of the metal parts of the chiller” value (from here on “appearance”) ([2]; 150° C.) was “considerable corrosion” and the “appearance” value ([2]; 150° C., listed as II) was “noticeable corrosion”.
For `CCOC(F)(C(F)(F)C(F)(F)F)C(F)(OC(F)(F)C(F)(OC(F)(F)C(F)(F)C(F)(F)F)C(F)(F)F)C(F)(F)F` (centres unmarked) [Comparative Example 2, 3-ethoxy-1,1,1,2,2,3,4,5,5,5-decafluoro-4-(1,1,2,3,3,3-hexafluoro-2-heptafluoropropyloxypropoxy)pentane], the “ppm Ketone (breakdown product C3F7OCF(CF3)CF2OCF(CF3)C(O)CF2CF3, GC-FID)” value (shortened to “ppm Ketone”) ([1]; 150° C., Day 1) was 140 ppm, the “ppm Ketone” value ([1]; 150° C., Day 2) was 300 ppm and the “ppm Ketone” value ([1]; 150° C., Day 3) was 503 ppm. For the same compound, the “ppm Ketone” value ([1]; 150° C., Day 6) was 1000 ppm, the “ppm Ketone” value ([1]; 150° C., Day 8) was 1200 ppm and the “stability of the HFE to temperature (conclusion from ketone concentration)” value [1] was “not exceptionally stable”.
With `COC(F)(C(F)(F)C(F)(F)F)C(F)(OC(F)(F)C(F)(OC(F)(F)C(F)(F)C(F)(F)F)C(F)(F)F)C(F)(F)F` (centres unmarked) [Comparative Example 3, 3-methoxy-1,1,1,2,2,3,4,5,5,5-decafluoro-4-(1,1,2,3,3,3-hexafluoro-2-heptafluoropropyloxypropoxy)pentane] the “ppm Ketone” value ([1]; 150° C., Day 1) was 50 ppm, the “ppm Ketone” value ([1]; 150° C., Day 2) was 50 ppm and the “ppm Ketone” value ([1]; 150° C., Day 5) was 50 ppm. The “ppm Ketone” value ([1]; 150° C., Day 7) was 50 ppm and the “stability of the HFE to temperature (conclusion from ketone concentration)” value [1] was “not exceptionally stable”.
For `CCOC(F)(F)C(F)(OC(F)(F)C(F)(OC(F)(F)C(F)(F)C(F)(F)C(F)(F)F)C(F)(F)F)C(F)(F)F` (centres unmarked) [Comparative Example 4, 1-(1-{[1-(ethoxydifluoromethyl)-1,2,2,2-tetrafluoroethoxy]-difluoromethyl}-1,2,2,2-tetrafluoroethoxy)-1,1,2,2,3,3,4,4,4-nonafluorobutane], the “% Breakdown products (sum of vinyl ether and hydride, GC-FID)” value (from here on “% Breakdown products”) ([1]; 150° C., Day 0) was 0%, the “% Breakdown products” value ([1]; 150° C., Day 3) was 0.18% and the “% Breakdown products” value ([1]; 150° C., Day 5) was 0.32%. For the same compound, the “% Breakdown products” value ([1]; 150° C., Day 7) was 0.49%.
In the case of `CCOC(F)(F)C(F)(OC(F)(F)C(F)(OC(F)(F)C(F)(OC(F)(F)C(F)(F)C(F)(F)F)C(F)(F)F)C(F)(F)F)C(F)(F)F` (centres unmarked) [Comparative Example 5, 1-{1-[(1-{[1-(ethoxydifluoromethyl)-1,2,2,2-tetrafluoroethoxy]difluoro-methyl}-1,2,2,2-tetrafluoroethoxy)difluoromethyl]-1,2,2,2-tetrafluoroethoxy}-1,1,2,2,3,3,3-heptafluoro-propane], the “% Breakdown products” value ([1]; 150° C., Day 0) is reported as 0%, the “% Breakdown products” value ([1]; 150° C., Day 2.75) is reported as 0.18% and the “% Breakdown products” value ([1]; 150° C., Day 4.75) is reported as 0.38%. For the same compound, the “% Breakdown products” value ([1]; 150° C., Day 6.75) was 0.45%, the “% Breakdown products” value ([1]; 150° C., Day 9.75) was 0.55% and the “% Breakdown products” value ([1]; 150° C., Day 18.75) was 1.59%.
For `FC(C(F)(F)F)C(F)(F)OCC(F)(F)C(F)(F)C(F)(F)C(F)(F)C(F)(F)C(F)F` (centres unmarked) [Example 1, 7-(1,1,2,3,3,3-hexafluoropropoxy)-1,1,2,2,3,3,4,4,5,5,6,6-dodecafluoroheptane], the “changes in product purity / breakdown products of the parent molecule (GC/MS, GC-FID)” value ([1]; PYREX glass flask, reflux condenser, under nitrogen, 150° C. for 36 days) was “No changes in product purity were observed”, the breakdown products ([1]; after 36 days at 150° C., heated to 180° C. for an additional 14 days) was “No breakdown products were observed” and the “HF in head space of the flask (PortaSens HF gas detector probe)” value ([1]; entire 50 day heating period (150° C. 36 days, 180° C. 14 days)) was “detected no HF”. For the same compound, the “HF level in head space of the chiller” value ([2]; 150° C., by day 13) was 0 ppm, the “increase in HF levels in head space of the chiller (PortaSens HF gas detector probe)” value ([2]; 150° C., entire 28 day heating period) was “detected no increase in the HF levels” and the “HF level in head space of the chiller” value ([2]; 150° C., observed initially) was 1.4 ppm. The “HF in the liquid phase by titration” value ([2]; 150° C., over the chiller test (about 28-30 days)) was ≤ 0.52 ppm, the “appearance” value ([2]; 150° C.) was “essentially unchanged” and the “changes in the composition of the circulating fluid (NMR, GC/MS)” value [2] was “no significant deterioration”. For the same compound, the “changes in the composition of the circulating fluid (NMR, GC/MS)” value ([2]; listed as HC6F12CH2OCF2CFHCF3) was “No changes in the composition of the fluid were observed”.
With `FC(OC(F)(F)F)C(F)(F)OCC(F)(F)C(F)(F)C(F)(F)C(F)(F)C(F)(F)C(F)F` (centres unmarked) [Example 2, 1,1,2,2,3,3,4,4,5,5,6,6-dodecafluoro-7-(1,1,2-trifluoro-2-trifluoromethoxyethoxy)heptane] the “changes in product purity (gas chromatography, GC/MS)” value ([1]; flask, reflux condenser, under nitrogen, 175° C. for 15 days) was “No changes in product purity were observed”.
